From patent EP0840609B1, “USE OF UNSUBSTITUTED AND SUBSTITUTED N-(PYRROL-1-YL)PYRIDINAMINES AS ANTICONVULSANT AGENTS” (Aventis Pharmaceuticals Inc., priority 1995, dated 1997)
Structures can show the parent of a compound that is named as a salt.

Test system: brain membrane sodium channels
Assay: not given
Conditions: vesicular preparation of male Wistar rat cortices, 25 nM [^3H]batrachotoxin, 60 minutes at 25°C; read-out: Inhibition of [^3H]Batrachotoxin Binding IC50

SMILES	IC50 [µM]
CCCN(c1ccncc1F)n1ccc2cc(O)ccc21 [1-[Propyl-4-(3-fluoropyridinyl)amino]-1H-indol-5-ol hydrochloride]	70
NCCc1cn(Nc2ccncc2)c2ccccc12 [3-Aminoethyl-N-(4-pyridinyl)-1H-indol-1-amine dimaleate]	44
CCCN(c1ccncc1)n1cc(CN)c2ccccc21 [3-Aminomethyl-N-propyl-N-(4-pyridinyl)-1H-indol-1-amine dihydrochloride]	10
Clc1cn(Nc2ccncc2)c2ccccc12 [3-Chloro-N-(4-pyridinyl)-1H-indol-1-amine salicylate]	11
CCCN(c1ccncc1)n1cc(Cl)c2ccccc21 [3-Chloro-N-propyl-N-(4-pyridinyl)-1H-1-amine hydrochloride]	10
CCc1cn(N(C)c2ccncc2)c2ccccc12 [3-Ethyl-N-methyl-N-(4-pyridinyl)-1H-indol-1-amine hydrochloride]	12
CCCN(c1ccncc1F)n1cccc1 [3-Fluoro-N-propyl-N-(1H-pvrrol-1-yl)-4-pyridinamine hydrochloride]	46
Cc1cn(Nc2ccncc2)c2ccc(O)cc12 [3-Methyl-1-(4-pyridinylamino)-1H-indol-5-ol]	20
CCCN(c1ccncc1)n1cc(C)c2cc(O)ccc21 [3-Methyl-1-(propyl-4-pyridinylamino)-1H-indol-5-ol hemi-oxalate]	21
Cc1cn(Nc2ccncc2)c2ccccc12.O=C(O)C(=O)O [3-Methyl-N-(4-pyridinyl)-1H-indol-1-amine oxalate]	11
Nc1cnccc1Nn1ccc2ccccc21 [4-[N-(1H-indol-1-yl)]-3,4-pyridinamine, 4-[N-(1H-indol-1-yl)]-3,4-pyridinamine hemihydrate]	22
CCCN(c1ccncc1)n1ccc2cc(Br)ccc21 [5-Bromo-N-propyl-N-(4-pyridinyl)-1H-indol-1-amine maleate]	14
Brc1ccc2c(ccn2Nc2ccncc2)c1 [5-bromo-N-(4-pyridinyl)-1H-indol-1-amine, 5-Bromo-N-(4-pyridinyl)-1H-indol-1-amine maleate]	23
NC(=O)N1c2ccccc2C=Cc2ccccc21 [Carbamazepine, reference compound]	94
CC(C)N(c1ccncc1)n1ccc2ccccc21 [N-(1-Methylethyl)-N-(4-pyridinyl)-1H-indol-1-amine maleate]	9
c1ccn(Nc2ccncc2)c1 [N-(1H-pyrrol-1-yl)-4-pyridinamine, N-(1H-Pyrrol-1-yl)-4-pyridinamine]	40
CC(C)CN(c1ccncc1)n1ccc2ccccc21 [N-(2-Methylpropyl)-N-(4-pyridinyl)-1H-indol-1-amine maleate]	9
c1ccc(Nn2ccc3ccccc32)nc1 [N-(2-pyridinyl)-1H-indol-1-amine, N-(2-Pyridinyl)-1H-indol-1-amine]	12
Clc1cnccc1Nn1ccc2ccccc21 [N-(3-Chloro-4-pyridinyl)-1H-indol-1-amine hydrochloride]	14
Cc1cn(Nc2ccncc2Cl)c2ccccc12 [N-(3-Chloro-4-pyridinyl)-3-methyl-1H-indol-1-amine hydrochloride]	29
CCCN(c1ccncc1Cl)n1cc(C)c2ccccc21 [N-(3-Chloro-4-pyridinyl)-3-methyl-N-propyl-1H-indol-1-amine]	44
CCCN(c1ccncc1Cl)n1ccc2ccccc21 [N-(3-Chloro-4-pyridinyl)-N-propyl-1H-indol-1-amine hydrochloride]	32
Cc1cn(Nc2ccncc2F)c2ccccc12 [N-(3-Fluoro-4-pyridinyl)-3-methyl-1H-indol-1-amine]	42
CCCN(c1ccncc1F)n1cc(C)c2ccccc21 [N-(3-Fluoro-4-pyridinyl)-N-propyl-3-methyl-1H-indol-1-amine hydrochloride]	31
Cc1cnccc1Nn1ccc2ccccc21 [N-(3-Methyl-4-pyridinyl)-1H-indol-1-amine]	21
c1cncc(Nn2ccc3ccccc32)c1 [N-(3-pyridinyl)-1H-indol-1-amine, N-(3-Pyridinyl)-1H-indol-1-amine]	12
c1ccc2c(c1)ccn2Nc1ccncc1 [N-(4-pyridinyl)-1H-indol-1-amine, N-(4-Pyridinyl)-1H-indol-1-amine maleate]	18
CCN(c1ccncc1)n1cccc1 [N-Ethyl-N-(1H-pyrrol-1-yl)-4-pyridinamine hydrochloride]	86
CCCN(c1ccncc1)n1cccc1 [N-Propyl-N-(1H-pyrrol-1-yl)-4-pyridinamine hydrochloride]	66
CCCN(c1ccncc1)n1ccc2ccccc21.Cl [N-Propyl-N-(4-pyridinyl)-1H-indol-1-amine hydrochloride]	5

Test system: Male CD-1 mice
Assay: Supramaximal electroshock in mice (block of tonic seizure / extensor tonus)
Type: in vivo
Conditions: Mus musculus, ip, @ 30 mpk, intraperitoneally, read-out: Inhibition of supramaximal electroshock (protection, normalized percent inhibition)
Method: This procedure is used as to predict anticonvulsant activity of a test compound in vivo by its ability to block a full tonic seizure induced by a supramaximal electroshock stimulation as an indication of efficacy in preventing grand mal seizures.
Male CD-1 mice (Charles River) weighing 18-30 grams were housed in accordance with the "NIH Guide to Care and Use of Laboratory Animals" (National Institutes of Health Care Publication 85-23, revised 1985) with a 12 hour light/dark cycle and free access to food and water. On the day of testing, animals are brought to the laboratory and randomly assigned to groups of six for the time course experiments and to test groups of ten for the dose-response experiments.
The apparatus used for the test was the Wahlquist Electroshock Stimulator (Model H), which has a power source of 120 volts ac. A current of 15.5 mA lasting for 300 msec was delivered by placing the terminals of the stimulator across the eyes of the animal. This stimulus results in a tonic seizure, defined as a brief period of hindlimb flexion followed by a prolonged period of hindlimb extension. […] Protection is calculated as a normalized percent inhibition relative to a vehicle treated control group.
A time course is performed to determine the peak time of drug action and then a dose response performed at the peak time to determine drug potency. Mice are dosed in a randomized fashion using a total of 4 dose groups and one vehicle control group. The ED50 value and 95% confidence limits are calculated by a computerized Litchfield and Wilcoxon analysis.
Drugs are prepared dissolved in distilled water and, if insoluble a drop of surfactant is added.. Drugs are routinely administered intraperitoneally for this test and given in a dosage volume of 10 ml/kg.

SMILES	inhibition at 30 mg/kg [%]
CCCN(c1ccncc1F)n1cc(C)c2ccccc21 [N-(3-Fluoro-4-pyridinyl)-N-propyl-3-methyl-1H-indol-1-amine hydrochloride]	50

Same assay, conditions: Mus musculus, ip, @ 60 mpk, intraperitoneally, read-out: Inhibition of supramaximal electroshock (protection, normalized percent inhibition)

SMILES	inhibition at 60 mg/kg [%]
CCCN(c1ccncc1F)n1cc(C)c2ccccc21 [N-(3-Fluoro-4-pyridinyl)-N-propyl-3-methyl-1H-indol-1-amine hydrochloride]	50

Same assay, conditions: Mus musculus, ip, intraperitoneally, dose response at peak time, read-out: INHIBITION OF SUPRAMAXIMAL ELECTROSHOCK IN MICE ED50

SMILES	ED50 [mg/kg]
Cc1cn(Nc2ccncc2)c2ccccc12.O=C(O)C(=O)O [3-Methyl-N-(4-pyridinyl)-1H-indol-1-amine oxalate]	13
NC(=O)N1c2ccccc2C=Cc2ccccc21 [Carbamazepine, reference compound]	18.6
O=C1NC(=O)C(c2ccccc2)(c2ccccc2)N1 [Diphenylhydantoin, reference compound]	9.4
CCCN(c1ccncc1)n1c(C)ccc1C.O=C(O)/C=C\C(=O)O [N-(2,5-Dimethyl-1H-pyrrol-1-yl)-N-(n-propyl)-4-pyridinamine maleate]	50.1
CCCN(c1ccncc1)n1ccc2ccccc21.Cl [N-Propyl-N-(4-pyridinyl)-1H-indol-1-amine hydrochloride]	14.2

Same assay, conditions: intraperitoneally, dose response at peak time

SMILES	INHIBITION OF SUPRAMAXIMAL ELECTROSHOCK IN MICE ED50 [mg/kg]
CCCN(c1ccncc1)n1cc(C)c2ccccc21.O=C(O)/C=C\C(=O)O [3-Methyl-N-propyl-N-(4-pvridinyl)-1H-indol-1-amine maleate]	14.4
